Species on record: Rattus norvegicus
Test: DrugMatrix - Regimen: Daily Repeat
Format: toxicity, organism-based, Sprague-Dawley
Set-up: regimen Daily Repeat, gender Male, age 6-8 weeks
Conditions: in vivo, po, route oral GAVAGE, […]; for ABSOLUTE BASOPHIL / ABSOLUTE EOSINOPHIL / ABSOLUTE LYMPHOCYTE / ABSOLUTE MONOCYTE / ABSOLUTE SEGMENTED NEUTROPHIL / BASOPHIL / EOSINOPHIL / ERYTHROCYTE COUNT / HEMATOCRIT / HEMOGLOBIN / LEUKOCYTE COUNT / LYMPHOCYTE / MEAN CORPUSCULAR HEMOGLOBIN / MEAN CORPUSCULAR HEMOGLOBIN CONCENTRATION / MEAN CORPUSCULAR VOLUME / MONOCYTE / NEUTROPHIL / NUCLEATED RED BLOOD CELLS / PLATELET COUNT: tissue Blood; for ALANINE AMINOTRANSFERASE / ALBUMIN / ALKALINE PHOSPHATASE / ASPARTATE AMINOTRANSFERASE / BLOOD UREA NITROGEN / CARBON DIOXIDE / CHLORIDE / CHOLESTEROL / CREATINE PHOSPHOKINASE / CREATININE / GLUCOSE / LACTATE DEHYDROGENASE / LIPASE / PHOSPHORUS / POTASSIUM / SODIUM / TOTAL BILIRUBIN / TOTAL PROTEIN / URIC ACID: tissue Plasma
[1] = 0 mg/kg, 72 h, dose level Control, time 3 day
[2] = 0 mg/kg, 120 h, dose level Control, time 5 day
[3] = 30 mg/kg, 72 h, dose level Low, time 3 day

CCC(C)n1ncn(-c2ccc(N3CCN(c4ccc(OCC5COC(Cn6cncn6)(c6ccc(Cl)cc6Cl)O5)cc4)CC3)cc2)c1=O (centres undefined) [ITRACONAZOLE]
ABSOLUTE BASOPHIL [1]: 0 CELLS/uL
ABSOLUTE EOSINOPHIL [1]: 104.17 CELLS/uL
ABSOLUTE LYMPHOCYTE [1]: 14547 CELLS/uL
ABSOLUTE MONOCYTE [1]: 292 CELLS/uL
ABSOLUTE SEGMENTED NEUTROPHIL [1]: 1640.17 CELLS/uL
BASOPHIL [1]: 0%
EOSINOPHIL [1]: 0.67%
ERYTHROCYTE COUNT [1]: 5.35 x10E6/uL
HEMATOCRIT [1]: 33.67%
HEMOGLOBIN [1]: 13.38 G/DL
LEUKOCYTE COUNT [1]: 16.58 x10E3/uL
LYMPHOCYTE [1]: 87.5%
MEAN CORPUSCULAR HEMOGLOBIN [1]: 25.05 pg
MEAN CORPUSCULAR HEMOGLOBIN CONCENTRATION [1]: 39.78 G/DL
MEAN CORPUSCULAR VOLUME [1]: 62.97 fL
MONOCYTE [1]: 1.83%
NEUTROPHIL [1]: 10%
NUCLEATED RED BLOOD CELLS [1]: 0 /100WBC
PLATELET COUNT [1]: 1274.5 x10E3/uL
ALANINE AMINOTRANSFERASE [1]: 76.83 u/L
ALBUMIN [1]: 3.97 G/DL
ALKALINE PHOSPHATASE [1]: 347 u/L
ASPARTATE AMINOTRANSFERASE [1]: 97.17 u/L
BLOOD UREA NITROGEN [1]: 14.33 mg/dL
CARBON DIOXIDE [1]: 25.5 mmol/L
CHLORIDE [1]: 100.33 MEQ/L
CHOLESTEROL [1]: 68.67 mg/dL
CREATINE PHOSPHOKINASE [1]: 659.17 u/L
CREATININE [1]: 0.32 mg/dL
GLUCOSE [1]: 160.67 mg/dL
LACTATE DEHYDROGENASE [1]: 271.5 u/L
LIPASE [1]: 11.67 u/L
PHOSPHORUS [1]: 10.65 mg/dL
POTASSIUM [1]: 5.95 MEQ/L
SODIUM [1]: 139.65 MEQ/L
TOTAL BILIRUBIN [1]: 0.2 mg/dL
TOTAL PROTEIN [1]: 5.72 G/DL
URIC ACID [1]: 1.37 mg/dL
ABSOLUTE BASOPHIL [2]: 0 CELLS/uL
ABSOLUTE EOSINOPHIL [2]: 331.5 CELLS/uL
ABSOLUTE LYMPHOCYTE [2]: 15021.67 CELLS/uL
ABSOLUTE MONOCYTE [2]: 376.5 CELLS/uL
ABSOLUTE SEGMENTED NEUTROPHIL [2]: 3070.33 CELLS/uL
BASOPHIL [2]: 0%
EOSINOPHIL [2]: 1.83%
ERYTHROCYTE COUNT [2]: 5.24 x10E6/uL
HEMATOCRIT [2]: 33.22%
HEMOGLOBIN [2]: 13.2 G/DL
LEUKOCYTE COUNT [2]: 18.8 x10E3/uL
LYMPHOCYTE [2]: 79.67%
MEAN CORPUSCULAR HEMOGLOBIN [2]: 25.17 pg
MEAN CORPUSCULAR HEMOGLOBIN CONCENTRATION [2]: 39.73 G/DL
MEAN CORPUSCULAR VOLUME [2]: 63.38 fL
MONOCYTE [2]: 2%
NEUTROPHIL [2]: 16.5%
NUCLEATED RED BLOOD CELLS [2]: 0 /100WBC
PLATELET COUNT [2]: 1142.67 x10E3/uL
ALANINE AMINOTRANSFERASE [2]: 52.5 u/L
ALBUMIN [2]: 3.9 G/DL
ALKALINE PHOSPHATASE [2]: 284.5 u/L
ASPARTATE AMINOTRANSFERASE [2]: 81.33 u/L
BLOOD UREA NITROGEN [2]: 16 mg/dL
CARBON DIOXIDE [2]: 25.33 mmol/L
CHLORIDE [2]: 99.5 MEQ/L
CHOLESTEROL [2]: 74.83 mg/dL
CREATINE PHOSPHOKINASE [2]: 448.33 u/L
CREATININE [2]: 0.37 mg/dL
GLUCOSE [2]: 164.17 mg/dL
LACTATE DEHYDROGENASE [2]: 290.67 u/L
LIPASE [2]: 6.83 u/L
PHOSPHORUS [2]: 11.5 mg/dL
POTASSIUM [2]: 6.28 MEQ/L
SODIUM [2]: 139.5 MEQ/L
TOTAL BILIRUBIN [2]: 0.13 mg/dL
TOTAL PROTEIN [2]: 5.55 G/DL
URIC ACID [2]: 1.12 mg/dL
ABSOLUTE BASOPHIL [3]: 0 CELLS/uL
ABSOLUTE EOSINOPHIL [3]: 60 CELLS/uL
ABSOLUTE LYMPHOCYTE [3]: 9936.67 CELLS/uL
ABSOLUTE MONOCYTE [3]: 160.67 CELLS/uL
ABSOLUTE SEGMENTED NEUTROPHIL [3]: 876 CELLS/uL
BASOPHIL [3]: 0%
EOSINOPHIL [3]: 0.67%
ERYTHROCYTE COUNT [3]: 6.06 x10E6/uL
HEMATOCRIT [3]: 37.97%
HEMOGLOBIN [3]: 14.57 G/DL
LEUKOCYTE COUNT [3]: 11.03 x10E3/uL
LYMPHOCYTE [3]: 89.67%
MEAN CORPUSCULAR HEMOGLOBIN [3]: 24 pg
MEAN CORPUSCULAR HEMOGLOBIN CONCENTRATION [3]: 38.4 G/DL
MEAN CORPUSCULAR VOLUME [3]: 62.6 fL
MONOCYTE [3]: 1.33%
NEUTROPHIL [3]: 8.33%
NUCLEATED RED BLOOD CELLS [3]: 0 /100WBC
PLATELET COUNT [3]: 1209.33 x10E3/uL
ALANINE AMINOTRANSFERASE [3]: 56 u/L
ALBUMIN [3]: 4.23 G/DL
ALKALINE PHOSPHATASE [3]: 522.33 u/L
ASPARTATE AMINOTRANSFERASE [3]: 74.33 u/L
BLOOD UREA NITROGEN [3]: 11 mg/dL
CARBON DIOXIDE [3]: 22.67 mmol/L
CHLORIDE [3]: 100.33 MEQ/L
CHOLESTEROL [3]: 56 mg/dL
CREATINE PHOSPHOKINASE [3]: 240 u/L
CREATININE [3]: 0.11 mg/dL
GLUCOSE [3]: 184.33 mg/dL
LACTATE DEHYDROGENASE [3]: 106 u/L
LIPASE [3]: 10 u/L
PHOSPHORUS [3]: 12.87 mg/dL
POTASSIUM [3]: 6.49 MEQ/L
SODIUM [3]: 141.73 MEQ/L
TOTAL BILIRUBIN [3]: 0.17 mg/dL
TOTAL PROTEIN [3]: 6.4 G/DL
URIC ACID [3]: 1.97 mg/dL
